Test results taken from patent US12129246B1, “Hydroquinazoline derivatives for the treatment of a disease or disorder” (Novartis AG, priority 2023, dated 2024).

How the values were obtained:
monkey NPR1 = monkey NPR1 (Macaca fascicularis, UniProt A0A7N9DBT9); assay: Cellular cGMP production assay, monkey NPR1 expressing CHO-K1 cells (CisBio HTRF); assay type: cell-based; conditions: monkey NPR1 CHO-K1 cells; for AC50: cGMP production, 30 min at 37° C., 12-point dose-response from 30 μM, read-out: Monkey NPR1 AC50; for Monkey NPR1 Amax (% of ANP): maximum cGMP production as percentage of the maximum cGMP produced with ANP
Outline: (§1)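 Step 1: add buffer (PBS, 0.1% BSA, 1 mM IBMX) and compounds, 3-fold series from 30 μM top. Step 2: incubate 30 min, 37 °C. Step 3: lyse; HTRF reagents 1 h at RT.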

human NPR1 = biological target: T1, human NPR1 (Homo sapiens, UniProt P16066); assay: Cellular cGMP production assay, human NPR1 expressing CHO-K1 cells (CisBio HTRF); assay type: cell-based; conditions: for AC50: cGMP production, 30 min at 37° C., 12-point dose-response from 30 μM; for Human NPR1 Amax (% of ANP): maximum cGMP production as percentage of the maximum cGMP produced with ANP
T1 construct: host or cells: CHO-K1
T1 sequence (P16066 33-1061): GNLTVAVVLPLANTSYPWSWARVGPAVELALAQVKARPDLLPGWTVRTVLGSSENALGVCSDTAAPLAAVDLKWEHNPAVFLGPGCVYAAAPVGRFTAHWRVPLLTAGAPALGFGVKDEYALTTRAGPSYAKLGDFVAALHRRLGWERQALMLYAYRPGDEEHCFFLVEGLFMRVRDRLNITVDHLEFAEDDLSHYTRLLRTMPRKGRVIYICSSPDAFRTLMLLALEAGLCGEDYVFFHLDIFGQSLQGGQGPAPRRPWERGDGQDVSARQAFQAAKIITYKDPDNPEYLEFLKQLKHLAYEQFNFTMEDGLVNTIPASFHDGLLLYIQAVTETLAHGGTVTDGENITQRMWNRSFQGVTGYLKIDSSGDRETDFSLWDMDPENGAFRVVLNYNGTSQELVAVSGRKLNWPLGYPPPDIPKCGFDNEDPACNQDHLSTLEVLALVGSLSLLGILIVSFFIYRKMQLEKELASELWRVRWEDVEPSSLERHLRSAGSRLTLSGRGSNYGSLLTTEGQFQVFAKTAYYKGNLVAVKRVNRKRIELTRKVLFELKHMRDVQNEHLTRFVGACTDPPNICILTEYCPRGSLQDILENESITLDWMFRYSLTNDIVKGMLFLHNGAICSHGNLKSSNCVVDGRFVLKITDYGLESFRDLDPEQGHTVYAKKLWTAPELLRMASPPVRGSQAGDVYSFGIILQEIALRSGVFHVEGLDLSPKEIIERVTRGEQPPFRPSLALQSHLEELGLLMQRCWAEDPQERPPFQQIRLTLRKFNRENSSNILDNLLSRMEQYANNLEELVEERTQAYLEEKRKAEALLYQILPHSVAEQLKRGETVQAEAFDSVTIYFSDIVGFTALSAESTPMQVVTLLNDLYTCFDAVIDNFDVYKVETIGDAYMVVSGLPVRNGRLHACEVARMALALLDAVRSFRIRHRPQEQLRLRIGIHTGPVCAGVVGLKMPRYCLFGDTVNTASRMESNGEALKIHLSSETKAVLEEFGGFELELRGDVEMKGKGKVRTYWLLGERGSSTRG
Outline: as §1

monkey NPR1, sequence (A0A7N9DBT9 entry or part of it): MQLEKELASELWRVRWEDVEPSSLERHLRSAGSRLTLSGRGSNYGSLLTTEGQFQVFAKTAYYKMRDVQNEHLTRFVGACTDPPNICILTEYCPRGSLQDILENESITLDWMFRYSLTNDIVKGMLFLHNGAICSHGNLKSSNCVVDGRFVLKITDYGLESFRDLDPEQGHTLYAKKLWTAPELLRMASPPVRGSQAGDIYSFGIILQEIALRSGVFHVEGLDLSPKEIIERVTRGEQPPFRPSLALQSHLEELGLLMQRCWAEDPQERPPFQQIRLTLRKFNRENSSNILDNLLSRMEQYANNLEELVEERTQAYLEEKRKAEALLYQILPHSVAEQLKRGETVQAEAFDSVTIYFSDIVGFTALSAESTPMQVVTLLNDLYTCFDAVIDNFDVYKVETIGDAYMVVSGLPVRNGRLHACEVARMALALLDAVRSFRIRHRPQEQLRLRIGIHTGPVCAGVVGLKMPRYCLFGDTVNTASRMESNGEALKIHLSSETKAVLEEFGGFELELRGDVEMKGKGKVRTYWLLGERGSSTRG

Row | SMILES | AC50 (monkey NPR1) | Monkey NPR1 Amax (% of ANP) (monkey NPR1) | AC50 (human NPR1) | Human NPR1 Amax (% of ANP) (human NPR1)
1 | CC[C@H]([C@H]1CC[C@H](C(=O)O)CC1)N(C)c1nc2c(c(N[C@H](c3cnn(C)c3)C(C)(C)N3CCCCC3)n1)C[C@H](c1ccccc1)CC2 [Compound 173, (1R,4r)-4-((R)-1-(methyl((R)-4-(((R)-2-methyl-1-(1-methyl-1H-pyrazol-4-yl)-2-(piperidin-1-yl)propyl)amino)-6-phenyl-5,6,7,8-tetrahydroquinazolin-2-yl)amino)propyl)cyclohexane-1-carboxylic acid] | 2.58 µM | 102.204 % of ANP | 4.2 µM | 102.335 % of ANP
2 | CC[C@H]([C@H]1CC[C@H](C(=O)O)CC1)N(C)c1nc2c(c(N[C@@H](CN3CCC[C@H](C)C3)c3cnn(C)c3)n1)CN(c1cccc(C#N)c1)CC2 [Compound 174, (1R,4r)-4-((R)-1-((6-(3-cyanophenyl)-4-(((R)-1-(1-methyl-1H-pyrazol-4-yl)-2-((S)-3-methylpiperidin-1-yl)ethyl)amino)-5,6,7,8-tetrahydropyrido[4,3-d]pyrimidin-2-yl)(methyl)amino)propyl)cyclohexane-1-carboxylic acid] | 0.01 µM | 97.462 % of ANP | 0.014 µM | 93.788 % of ANP
